Some test systems named below: HOP-62 NSCLC; T-47D breast; M14 melanoma; LXFL 529 NSCLC; SR leukemia; UACC-257 melanoma; HS 578T breast; DMS 273 small cell lung; KM20L2 colon.
Holding throughout (experiment): DTP human tumour cell line panel, 48 h

Usually TGI stands for the concentration giving total growth inhibition. As a reminder, the GI50 is the concentration at which growth is held to half of that of the control.

Where “and” joins values, the source holds several entries; their conditions need not be identical. Equal values may be shown once.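 Interpolation was linear, between the two tested concentrations surrounding the appropriate level; five concentrations were tested over 48 hours in 96-well plates. Abbreviation: GI50, concentration required for 50% inhibition of growth. TGI: concentration producing complete growth inhibition.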 Calls of active or inactive are those of the source. Cut-off read from the data, not from the text of the source: active = GI50 below about 0.43 µM; inactive = the rest.

In the case of `COC(=O)c1ccc2c(c1)C(NC(C)=O)CCc1cc(OC)c(OC)c(OC)c1-2` (stereo not drawn), the TGI was 52.4 µM in the test on HOP-62 NSCLC; greater than 100 µM with T-47D breast; greater than 31.6 µM in the test with M14 melanoma; greater than 100 µM in the test on LXFL 529 NSCLC; 2.68 µM in the test with SR leukemia; greater than 100 µM in the test with UACC-257 melanoma. For the same compound, the TGI with HS 578T breast is 7.78 µM; with DMS 273 small cell lung it was greater than 100 µM; with KM20L2 colon, less than 0.01 µM.

Regarding `CSc1ccc(/C=C2\CNC/C(=C\c3ccc(SC)cc3)C2=O)cc1`, the GI50 is 14 µM and 50.2 µg/mL with HOP-62 NSCLC; 23.3 µM in the test with SR leukemia; 150 µg/mL in the test with UACC-257 melanoma; 46.2 µg/mL with DMS 273 small cell lung. The TGI was 59.3 µM and 131 µg/mL in the test on HOP-62 NSCLC; greater than 371 µM in the test on T-47D breast; greater than 371 µM with M14 melanoma; 68.6 µM in the test on LXFL 529 NSCLC; 67.8 µM and > 190 µM with SR leukemia; > 371 µM and 150 µg/mL with UACC-257 melanoma. Moreover, the TGI in the test with HS 578T breast is greater than 371 µM; with DMS 273 small cell lung it was 150 µg/mL. In the test on KM20L2 colon, the outcome was inactive.

Take `N#CC(C#N)SCc1ccccc1`: the TGI with HOP-62 NSCLC is greater than 100 µM; in the test on T-47D breast, greater than 100 µM; in the test with M14 melanoma, greater than 100 µM; with LXFL 529 NSCLC it was greater than 100 µM; in the test on UACC-257 melanoma, greater than 100 µM; with HS 578T breast, 98.3 µM. In addition, the figures for the TGI with DMS 273 small cell lung and in the test with KM20L2 colon were greater than 100 µM and 63.4 µM, respectively.

With `COC1/C=C/OC2(C)Oc3c(C)c(O)c4c(c3C2=O)C(=O)C=C(NC(=O)/C(C)=C\C=C\C(C)C(OC=O)C(C)C(O)C(C)C(OC(C)=O)C1C)C4=O` (stereo not drawn), the TGI in the test on HOP-62 NSCLC was determined as 34.8 µM; in the test with T-47D breast it was 11.6 µM; with M14 melanoma, 19.5 µM; in the test with LXFL 529 NSCLC, 19 µM; in the test with SR leukemia, 8.08 µM; in the test on UACC-257 melanoma it was 26.5 µM. Moreover, the TGI with HS 578T breast amounted to 44.9 µM; in the test with DMS 273 small cell lung, 30.9 µM; in the test on KM20L2 colon, 35.2 µM.

On to `CC(=O)N(CCN)CCN`, for which the TGI in the test with HOP-62 NSCLC, in the test on M14 melanoma, in the test with LXFL 529 NSCLC, in the test with SR leukemia, in the test on UACC-257 melanoma and with DMS 273 small cell lung was greater than 10 µM each time. Further, in the test with KM20L2 colon, the TGI is greater than 10 µM.

Turning to `O=C1c2ccccc2N2OC3(N4CCCC4)CCCC3C12c1ccccc1` (stereo not drawn), the TGI with HOP-62 NSCLC, with M14 melanoma, in the test on LXFL 529 NSCLC, with SR leukemia, with UACC-257 melanoma and with DMS 273 small cell lung was greater than 100 µM in each case. Also, the TGI in the test on KM20L2 colon was greater than 100 µM.

Consider `O=C(CCc1nc(=S)[nH][nH]1)NC12CC3CC(CC(C3)C1)C2`, for which the TGI with HOP-62 NSCLC, in the test with M14 melanoma, in the test with LXFL 529 NSCLC, in the test on SR leukemia, in the test on UACC-257 melanoma and in the test on DMS 273 small cell lung was greater than 100 µM each time. In the test with KM20L2 colon, this compound displayed a concentration for total growth inhibition (TGI) greater than 100 µM.

Consider `COc1cc(C2c3cc4c(cc3[C@@H](Nc3ccc(N(C)C)cc3)[C@H]3COC(=O)C23)OCO4)cc(OC)c1O` (stereo partly drawn), for which the GI50 was 0.187 µM with HOP-62 NSCLC; 1.44 µM in the test on M14 melanoma; 6.16 µM with LXFL 529 NSCLC; 10.2 µM with UACC-257 melanoma; 0.202 µM with DMS 273 small cell lung; 2.41 µM with KM20L2 colon. For the same compound, the concentration for total growth inhibition (TGI) was 0.385 µM and 1.23 µM in the test with HOP-62 NSCLC; 8.61 µM and 16.2 µM with M14 melanoma; 11.1 µM and 20.6 µM in the test on LXFL 529 NSCLC; 0.924 µM in the test on SR leukemia; 11.2 µM and 28.8 µM in the test on UACC-257 melanoma; 0.877 µM and 2.47 µM with DMS 273 small cell lung. The TGI in the test with KM20L2 colon is 3.02 µM and 10.7 µM.

Values taken from PubChem BioAssay (NCI).
